# Experimental data published in PMC9951859, “Investigation of α,ω-Disubstituted Polyamine-Cholic Acid Conjugates Identifies Hyodeoxycholic and Chenodeoxycholic Scaffolds as Non-Toxic, Potent Antimicrobials” (Antibiotics, 2023).
# “And” between values parts separate entries of the source, which are not always exact repeats. Equal values may be shown once. “Also recorded” adds a separate entry of the source. Read-outs that look alike come from different tables or passages of the source.
# How the values were obtained:
# [1] = system: Candida albicans ATCC 90028; test: Antimicrobial MIC assay (CO-ADD) against C. albicans; assay type: cell-based; conditions: mean (n = 2)
# Text: (§1) Antimicrobial evaluation against S. aureus (MRSA) (ATCC 43300), E. coli (ATCC 25922), K. pneumoniae (ATCC 700603), A. baumannii (ATCC 19606), C. albicans (ATCC 90028), and C. neoformans (ATCC 208821) was undertaken at the Community for Open Antimicrobial Drug Discovery at The University of Queensland (Australia) according to their standard protocols as reported previously.
# [2] = system: erythrocytes; design: method as in PMID 11806717; conditions: hemolytic activity; read-out: EC50 for hemoglobin release from erythrocytes; cited from earlier work
# [3] = system: Cryptococcus neoformans ATCC 208821; test: Antimicrobial MIC assay (CO-ADD) against C. neoformans; assay type: cell-based
# Text: as §1
# [4] = system: human red blood cells; test: Hemolytic assay; assay type: cell-based; conditions: concentration at 10% hemolytic activity on human red blood cells, mean (n = 2), top dose tested 32 μg/mL
# Procedure: Hemolytic assays were conducted using the protocols previously reported.
# [5] = system: Escherichia coli ATCC 25922; test: Antimicrobial MIC assay (CO-ADD) against E. coli; assay type: cell-based
# Text: as §1
# [6] = system: B lymphoma Wehi-231 cells; design: method as in PMID 19883637; conditions: read-out: EC50 for propidium iodide entry; cited from earlier work
# [7] = Cytotoxicity assay on HEK293; assay type: cell-based, human; conditions: human, concentration at 50% cytotoxicity on HEK293, mean (n = 2), top dose tested 32 μg/mL
# Procedure: (§2) Cytotoxicity assays were conducted using the protocols previously reported.
# [8] = system: HEK293 human embryonic kidney cells; test: Cytotoxicity assay on HEK293; assay type: cell-based; conditions: concentration at 50% cytotoxicity on HEK293; mean (n = 2); top dose tested 32 μg/mL
# Procedure: as §2
# [9] = system: Acinetobacter baumannii ATCC 19606; test: Antimicrobial MIC assay (CO-ADD) against A. baumannii; assay type: cell-based
# Text: as §1
# [10] = system: Pseudomonas aeruginosa ATCC 27853; test: Antimicrobial MIC assay (CO-ADD) against P. aeruginosa; assay type: cell-based
# [11] = system: Klebsiella pneumoniae ATCC 700603; test: Antimicrobial MIC assay (CO-ADD) against K. pneumoniae; assay type: cell-based
# Text: as §1
# [12] = system: S. aureus; test: ATP release bioluminescence assay; assay type: cell-based, Staphylococcus aureus; conditions: followed over 30 min after exposure, CTAB (1%) positive control
# Procedure: Solutions of the test compound 7e were prepared in DMSO at various concentrations. A suspension of growing S. aureus to be studied in Muller-Hinton II broth was prepared and incubated at 37 °C. An aliquot (90 µL) of this suspension was added to 10 µL of test compound solution and vortexed for 10 s. Luciferin–luciferase reagent (Yelen, France; 50 µL) was immediately added to this mixture, and luminescent signal quantified with an Infinite M200 microplate reader (Tecan) over a 30 min period; ATP concentration was quantified using internal sample addition. A similar procedure was used for the CTAB positive control.
# [13] = system: S. aureus MRSA (CF-Marseille); test: Minimum bactericidal concentration test, S. aureus MRSA (CF-Marseille); assay type: cell-based, Staphylococcus aureus
# Procedure: (§3) A pure culture of a specified microorganism was grown overnight, then diluted in growth-supporting broth (typically Mueller Hinton II broth) to a concentration between 1 × 10^5 and 1 × 10^6 CFU/mL. A stock dilution of the antimicrobial test compound was made at approximately 100 times the expected, previously determined MIC. Further 1:1 dilution was made in 96 well microtiter plates. All dilutions of the test compound were inoculated with equal volumes of the specified microorganism (typically 100 µL). […] An aliquot of the positive control was plated and used to establish a baseline concentration of the microorganism used. The microtiter plates were then incubated at 37 °C for 24 h. Turbidity indicates growth of the microorganism, and the MIC is the lowest concentration where no growth was visually observed. To determine the minimum bactericidal concentration (MBC), the dilution representing the MIC and at least two of the more concentrated test product dilutions was plated on a solidified agar plate to determine the bacterial viability. The MBC is the lowest concentration where no growth is encountered when compared to the MIC dilution.
# [14] = system: E. coli ATCC 25922; test: Antibiotic enhancement of erythromycin; assay type: cell-based, Escherichia coli; conditions: erythromycin at 2 μg/mL
# Procedure: (§4) Restoring enhancer concentrations were determined with an inoculum of 5 × 10^5 CFU in […] of MH broth containing two-fold serial dilutions of each derivative in the presence of either doxycycline or erythromycin at 2 μg/mL. […] These measurements were independently repeated in triplicate.
# [15] = system: Staphylococcus aureus ATCC 43300 (MRSA); test: Antimicrobial MIC assay (CO-ADD) against S. aureus MRSA; assay type: cell-based; conditions: Staphylococcus aureus, read-out: MIC S.a.
# Text: as §1
# [16] = system: S. aureus MRSA (CF-Marseille); test: Real time growth curves, S. aureus MRSA (CF-Marseille); assay type: cell-based, Staphylococcus aureus; conditions: BHI, 1 to 19 h, at 3.2 μM (4 µg/mL) and 12.7 μM (16 µg/mL)
# Procedure: (§5) Solutions of compound 7e at concentrations of 2, 4 and 16 µg/mL were tested each in triplicate against S. aureus ATCC 25923, S. aureus MRSA (CF-Marseille) and Bacillus cereus ATCC 11778. Typically, in a 96 well plate was placed 10 µL of 40, 80 and 320 µg/mL stock solutions of compound 7e as well as 190 µL of a 5 × 10^5 CFU/mL of the selected bacterial suspension in brain heart infusion (BHI) broth. Positive controls containing only 200 µL of a 5 × 10^5 CFU/mL of bacterial suspension in BHI and negative controls containing only 200 µL of BHI broth were added. The plate was incubated at 37 °C in a TECAN Spark Reader […] and real time bacterial growth was followed with OD590 nm measurements every 10 min during 19 h.
# [17] = system: Bacillus cereus ATCC 11778; test: Broth microdilution MIC (CA-SFM), Bacillus cereus; assay type: cell-based; conditions: ATCC11778; classical microdilution, Bacillus cereus ATCC 11778, 18 h at 37 °C
# Procedure: (§6) Additional antimicrobial evaluation against S. aureus (ATCC 25923), S. aureus MRSA (CF-Marseille) and Bacillus cereus (ATCC 11778) was determined in microplates using the standard broth dilution method in accordance with the recommendations of the Comité de l’AntibioGramme de la Société Française de Microbiologie (CA-SFM). Briefly, the minimal inhibitory concentrations (MICs) were determined with an inoculum of 10^5 CFU in 200 µL of MHB containing two-fold serial dilutions of each drug. […] To determine all MICs, the measurements were independently repeated in triplicate.
# [18] = system: S. aureus MRSA (CF-Marseille); test: Broth microdilution MIC (CA-SFM), S. aureus MRSA (CF-Marseille); assay type: cell-based; conditions: Staphylococcus aureus, 18 h
# Procedure: as §6
# [19] = system: S. aureus ATCC 25923; test: Broth microdilution MIC (CA-SFM), S. aureus ATCC 25923; assay type: cell-based; conditions: Staphylococcus aureus, ATCC25923; classical microdilution, S. aureus ATCC 25923, 18 h at 37 °C
# Procedure: as §6
# [20] = system: P. aeruginosa ATCC 27853; test: Antibiotic enhancement of doxycycline; assay type: cell-based, Pseudomonas aeruginosa; conditions: doxycycline at 2 μg/mL
# Procedure: as §4
# [21] = system: S. aureus ATCC 25923; test: Minimum bactericidal concentration test, S. aureus ATCC 25923; assay type: cell-based, Staphylococcus aureus
# Procedure: as §3
# [22] = system: Bacillus cereus ATCC 11778; test: Real time growth curves, Bacillus cereus; assay type: cell-based
# Procedure: as §5
# [23] = system: Bacillus cereus ATCC 11778; test: Minimum bactericidal concentration test, Bacillus cereus; assay type: cell-based
# Procedure: as §3
# [24] = system: S. aureus ATCC 25923; test: Real time growth curves, S. aureus ATCC 25923; assay type: cell-based, Staphylococcus aureus
# Procedure: as §5
structure (smiles),measurement,setting,value
"CC(C)[C@@H](CC[C@@H](C)[C@H]1CC[C@H]2[C@@H]3[C@H](O)C[C@H]4C[C@@H](NCCCNCCCCN)CC[C@]4(C)[C@H]3CC[C@]12C)OS(=O)(=O)O [Compound 1, Squalamine, reference compound]",MIC,"[1]; ATCC90028, Candida albicans ATCC 90028, read-out: MIC C.a.",4.5 µM
same,EC50,[2],80 µM
same,MIC,"[3]; ATCC208821, Cryptococcus neoformans ATCC 208821, mean (n = 2), read-out: MIC C.n.",0.56 µM
same,Hemolysis (HC10),[4],>36 µM
same,Hemolysis (HC10),[4]; listed as squalamine,lack of toxicity indicators
same,MIC,"[5]; ATCC25922, Escherichia coli ATCC 25922, mean (n = 2), read-out: MIC E.c.",≤ 0.28 µM
same,MIC,"[5]; Escherichia coli ATCC 25922, mean (n = 2), read-out: MIC E.c.",≤0.28 µM
same,EC50,[6],51 µM
same,IC50,[7],> 36 µM
same,Cytotoxicity (IC50),[8],lack of toxicity indicators
same,MIC,"[9]; ATCC19606, Acinetobacter baumannii ATCC 19606, mean (n = 2), read-out: MIC A.b.",≤ 0.28 µM
same,MIC,"[9]; Acinetobacter baumannii ATCC 19606, mean (n = 2), read-out: MIC A.b.",≤0.28 µM
same,MIC,"[10]; ATCC27853, Pseudomonas aeruginosa ATCC 27853, mean (n = 2), read-out: MIC P.a.",18 µM
same,MIC,"[11]; ATCC700603, Klebsiella pneumoniae ATCC 700603, mean (n = 2), read-out: MIC K.p.",≤ 0.28 µM
same,MIC,"[11]; Klebsiella pneumoniae ATCC 700603, mean (n = 2), read-out: MIC K.p.",≤0.28 µM
"C[C@H](CCC(=O)NCCCNCCCCCCCCCCNCCCNC(=O)CC[C@@H](C)[C@H]1CC[C@H]2[C@@H]3C[C@H](O)[C@@H]4C[C@H](O)CC[C@]4(C)[C@H]3CC[C@]12C)[C@H]1CC[C@H]2[C@@H]3C[C@H](O)[C@@H]4C[C@H](O)CC[C@]4(C)[C@H]3CC[C@]12C.O=C(O)C(F)(F)F.O=C(O)C(F)(F)F [Compound 7e, N^1,N^10-Bis(3-((R)-4-((3R,5R,6S,8S,9S,10R,13R,14S,17R)-3,6-dihydroxy-10,13-dimethylhexadecahydro-1H-cyclopenta[a]phenanthren-17-yl)pentanamido)propyl)decane-1,10-diaminium 2,2,2-trifluoroacetate]","ATP release (extracellular ATP, bioluminescence)",[12],inability of 7e to induce ATP release; also recorded: failed to cause ATP release
same,MBC/MIC ratio,[13]; S. aureus MRSA (CF-Marseille) (one of three Gram-positive strains),approximately one
same,minimum bactericidal concentration (MBC),"[13]; S. aureus MRSA (CF-Marseille), stated relative to MIC (3.2 μM, 4 μg/mL)",The same values were observed
same,enhancement of antibiotic activity of erythromycin,[14],No enhancement was observed
same,MIC,"[1]; Candida albicans, ATCC90028, read-out: MIC C.a., Candida albicans ATCC 90028",≤ 0.2 µM
same,MIC,"[3]; Cryptococcus neoformans, ATCC208821, read-out: MIC C.n.",0.8 µM
same,MIC,[15],≤ 0.2 µM
same,real time growth inhibition (OD 590 nm),[16],inhibited all three strains
same,Hemolysis (HC10),[4],>25 µM
same,MIC,"[5]; Escherichia coli, ATCC25922, read-out: MIC E.c.",> 25 µM
same,MIC,[17],3.2 µM and 4 µg/mL
same,MIC,[18],3.2 µM and 4 µg/mL
same,IC50,[7]; HEK293 human embryonic kidney cells,> 25 µM
same,MIC,"[9]; Acinetobacter baumannii, ATCC19606, read-out: MIC A.b.",> 25 µM
same,MIC,"[10]; Pseudomonas aeruginosa, ATCC27853, read-out: MIC P.a.",> 25 µM
same,MIC,[19],1.6 µM and 2 µg/mL
same,enhancement of antibiotic activity of doxycycline,[20],No enhancement was observed
same,MBC/MIC ratio,[21]; S. aureus ATCC 25923 (one of three Gram-positive strains),approximately one
same,minimum bactericidal concentration (MBC),"[21]; S. aureus ATCC 25923, stated relative to MIC (1.6 μM, 2 μg/mL)",The same values were observed
same,time after which growth was exhibited,"[22]; B. cereus, BHI, lowest tested concentration 1.6 μM (2 µg/mL)",10 h
same,real time growth inhibition (OD 590 nm),"[22]; Bacillus cereus ATCC 11778, BHI, 1 to 19 h, at 3.2 μM (4 µg/mL) and 12.7 μM (16 µg/mL)",inhibited all three strains
same,MBC/MIC ratio,[23]; Bacillus cereus ATCC 11778 (one of three Gram-positive strains),approximately one
same,minimum bactericidal concentration (MBC),"[23]; Bacillus cereus ATCC 11778, stated relative to MIC (3.2 μM, 4 μg/mL)",The same values were observed
same,time after which growth was exhibited,"[24]; S. aureus (strain not stated), BHI, lowest tested concentration 1.6 μM (2 µg/mL)",13 h
same,real time growth inhibition (OD 590 nm),"[24]; S. aureus ATCC 25923, BHI, 1 to 19 h, at 3.2 μM (4 µg/mL) and 12.7 μM (16 µg/mL)",inhibited all three strains
same,MIC,"[11]; Klebsiella pneumoniae, ATCC700603, read-out: MIC K.p.",> 25 µM
